In patent US9682940B2, “Indazole derivatives useful as CB-1 inverse agonists” (Janssen Pharmaceutica NV, priority 2015, dated 2017):

How the values were obtained:
[1] = biological target: Human CB2R (Cannabanoid receptor 2) (Homo sapiens (Human), UniProt P34972); experiment: CB-2 in vitro cAMP (HTRF) assay in HEK-293 cells; type: cell-based; details: HEK-293 cells stably transfected with human CB2R, 250 nM Forskolin, mean where tested more than once, read-out: CB-2 (HEK_cAMP) EC50
Method in brief: (§1)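 HEK-293 cells stably expressing human CB1 or CB2 plated overnight, then tested in HBSS/5 mM HEPES/0.1% BSA with 0.5 mM IBMX and forskolin (1.5 μM working dilution). Intracellular cAMP quantified by competitive HTRF immunoassay (d2-cAMP, cryptate anti-cAMP) against a cAMP standard curve; compounds as 1/3 serial dilutions from 10 mM DMSO stocks.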

[2] = biological target: Human CB1R (Cannabanoid receptor 1) (Homo sapiens (Human), UniProt P21554); experiment: CB-1 in vitro cAMP (HTRF) assay in HEK-293 cells; type: cell-based; details: HEK-293 cells stably transfected with human CB1R, 250 nM Forskolin, mean where tested more than once, read-out: CB-1 (HEK_cAMP) EC50
Chain of Human CB1R (Cannabanoid receptor 1) (P21554 whole entry): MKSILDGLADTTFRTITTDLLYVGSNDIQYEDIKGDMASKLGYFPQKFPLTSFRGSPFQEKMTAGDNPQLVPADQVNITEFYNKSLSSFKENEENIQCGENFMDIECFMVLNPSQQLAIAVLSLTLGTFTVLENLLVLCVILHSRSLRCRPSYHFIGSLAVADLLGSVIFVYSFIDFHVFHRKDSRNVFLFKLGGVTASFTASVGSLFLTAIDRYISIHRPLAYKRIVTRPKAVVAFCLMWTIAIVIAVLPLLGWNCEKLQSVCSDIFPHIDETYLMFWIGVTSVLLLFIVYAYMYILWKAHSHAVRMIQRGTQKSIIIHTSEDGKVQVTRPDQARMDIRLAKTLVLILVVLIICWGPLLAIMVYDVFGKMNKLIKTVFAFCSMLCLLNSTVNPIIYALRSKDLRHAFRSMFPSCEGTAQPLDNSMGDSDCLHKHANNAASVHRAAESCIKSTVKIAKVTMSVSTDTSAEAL
Method in brief: as §1

Chain of Human CB2R (Cannabanoid receptor 2) (P34972 whole entry): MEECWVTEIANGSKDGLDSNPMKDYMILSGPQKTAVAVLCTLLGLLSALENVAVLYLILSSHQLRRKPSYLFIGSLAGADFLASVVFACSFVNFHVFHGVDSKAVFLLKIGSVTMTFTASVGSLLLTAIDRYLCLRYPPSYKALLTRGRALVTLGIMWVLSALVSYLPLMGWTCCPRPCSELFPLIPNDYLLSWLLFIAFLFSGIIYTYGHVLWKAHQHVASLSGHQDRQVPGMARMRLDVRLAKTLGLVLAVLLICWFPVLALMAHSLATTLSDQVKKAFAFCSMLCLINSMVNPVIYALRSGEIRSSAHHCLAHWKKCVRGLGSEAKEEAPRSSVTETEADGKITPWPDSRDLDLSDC

`O=C(O)c1ccc(S(=O)(=O)N2CCC(c3c4cc(C(c5ccc(Cl)cc5)c5ccc(Cl)cc5)ccc4nn3C3CC3)CC2)cc1F` [Compound 166, 4-(4-(5-(bis(4-chlorophenyl)methyl)-2-cyclopropyl-2H-indazol-3-yl)piperidin-1-ylsulfonyl)-2-fluorobenzoic acid] showed an EC50 [1] of 2390 nM and an EC50 [2] of 2 nM.

In the case of `O=C(O)c1ccc([C@H](c2ccc(Cl)cc2)c2ccc3[nH]nc(N4CCN(S(=O)(=O)C(F)(F)F)CC4)c3c2)cc1` [Compound 233], the EC50 [1] is reported as > 10000 nM and the EC50 [2] is reported as 3550 nM.

With `O=C(O)c1ccc(CN2CCC(c3c4cc(C(c5ccc(Cl)cc5)c5ccc(Cl)cc5)ccc4nn3C3CC3)CC2)nc1` [Compound 252] the EC50 [1] was > 10000 nM and the EC50 [2] was 77 nM.

With `O=C(O)c1ccc(C(O)(c2ccc(Cl)cc2)c2ccc3[nH]nc(C4CCN(S(=O)(=O)C(F)(F)F)CC4)c3c2)cc1` (stereo not shown) [Compound 187] the EC50 [1] was > 10000 nM and the EC50 [2] was 3040 nM.

`O=S(=O)(N1CCC(c2c3cc(C(c4ccc(Cl)cc4)c4ccc(Cl)cc4)ccc3nn2C2CC2)CC1)C(F)(F)F` [Compound 136, 5-(bis(4-chlorophenyl)methyl)-2-cyclopropyl-3-(1-(trifluoromethylsulfonyl)piperidin-4-yl)-2H-indazole] was tested, and the EC50 [1] was > 10000 nM and the EC50 [2] was 11 nM.

For `NC(=O)c1cccc(S(=O)(=O)N2CCC(c3n[nH]c4ccc(C(c5ccc(Cl)cc5)c5ccc(Cl)cc5)cc34)CC2)c1` [Compound 65], the EC50 [1] was > 10000 nM and the EC50 [2] was 25 nM.

`COC(=O)c1ccccc1S(=O)(=O)N1CCC(c2n[nH]c3ccc(C(c4ccc(Cl)cc4)c4ccc(Cl)cc4)cc23)CC1` [Compound 31] gave an EC50 [1] of 2340 nM and an EC50 [2] of 128 nM.

In the case of `O=C(O)c1ccc(S(=O)(=O)N2CCC(c3nn(CCO)c4ccc(C(c5ccc(Cl)cc5)c5ccc(Cl)cc5)cc34)CC2)cc1` [Compound 80], the EC50 [1] is reported as > 10000 nM and the EC50 [2] is reported as 374 nM.

For `O=C(O)CC(=O)N1CCC(c2nn(C3CC3)c3ccc(C(c4ccc(Cl)cc4)c4ccc(Cl)cc4)cc23)CC1` [Compound 102], the EC50 [1] was > 10000 nM and the EC50 [2] was 477 nM.

With `Cn1nc(C2CCN(S(=O)(=O)c3cccc(C(=O)O)c3)CC2)c2cc(C(c3ccc(Cl)cc3)c3ccc(Cl)cc3)ccc21` [Compound 63] the EC50 [1] was > 10000 nM and the EC50 [2] was 66 nM.

With `O=C(O)c1cccc(S(=O)(=O)N2CCC(c3n[nH]c4ccc(C(c5ccc(Cl)cc5)c5ccc(Cl)cc5)cc34)C2)c1` (stereo not shown) [Compound 273] the EC50 [1] was > 10000 nM and the EC50 [2] was 6800 nM.

With `O=C(O)c1ccc(S(=O)(=O)N2CCC(c3c4cc(C(c5ccc(Cl)cc5)c5ccc(Cl)cc5)ccc4nn3C3CC3)CC2)cc1Cl` [Compound 161, 4-(4-(5-(bis(4-chlorophenyl)methyl)-2-cyclopropyl-2H-indazol-3-yl)piperidin-1-ylsulfonyl)-2-chlorobenzoic acid] the EC50 [1] was 950 nM and the EC50 [2] was 4 nM.

For `O=C(NCCO)c1ccc(-n2nc(C3CCN(S(=O)(=O)C(F)(F)F)CC3)c3cc(C(c4ccc(Cl)cc4)c4ccc(Cl)cc4)ccc32)cc1` [Compound 229], the EC50 [1] was > 10000 nM and the EC50 [2] was 37 nM.

In the case of `O=S(=O)(N1CCC(c2n[nH]c3ccc(C(c4ccc(Cl)cc4)c4ccc(Cl)cc4)cc23)CC1)C(F)(F)F` [Compound 173], the EC50 [1] is reported as 5780 nM and the EC50 [2] is reported as 7 nM.
